Molecules are shown by their SMILES.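 Protocol summary: plate cells (96-well), add compound at 5 concentrations, incubate 48 h, interpolate endpoints linearly. At the GI50, growth is halved. TGI marks complete inhibition of growth.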 Where only a bound is given, the exact number is not on record here.

Test systems include EKVX NSCLC; HCT-15 colon; HOP-62 NSCLC; IGROV1 ovarian; NCI/ADR-RES ovarian; OVCAR-8 ovarian; SNB-19 CNS; UACC-62 melanoma; UO-31 renal; A498 renal.
Common to all, as to test: NCI tumour cell line growth inhibition, 48 h

`COc1cccc(-c2nn(-c3ccccc3)cc2-c2ccnc(NCCNC(=O)Nc3ccc(Cl)c(Cl)c3)c2)c1`: the GI50 is 2.48 µM with EKVX NSCLC; 3 µM in the assay with HCT-15 colon; 3.39 µM in the assay on HOP-62 NSCLC; 3.61 µM in the assay on IGROV1 ovarian; 2.08 µM in the assay with NCI/ADR-RES ovarian; 2.98 µM with OVCAR-8 ovarian. Besides, the GI50 with SNB-19 CNS was 2.63 µM; with UACC-62 melanoma, 1.84 µM; in the assay with UO-31 renal it was 1.44 µM. For the same molecule, the TGI in the assay with EKVX NSCLC stood at 16.7 µM; with HCT-15 colon, 10.7 µM; with HOP-62 NSCLC it was 12.7 µM; in the assay with IGROV1 ovarian, 15.6 µM; in the assay with NCI/ADR-RES ovarian, 5.64 µM; in the assay with OVCAR-8 ovarian it was 11.2 µM. The TGI stood at 9.8 µM with SNB-19 CNS, 4.51 µM with UACC-62 melanoma and 5.03 µM in the assay with UO-31 renal.
For `CN1C(=O)c2cc(Cl)nc3c(NC(=O)c4cccc(Cl)c4)c(Cl)c(NC(=O)c4cccc(Cl)c4)c1c23`, the GI50 in the assay with A498 renal is 3.49 µM; with EKVX NSCLC, 1.85 µM; in the assay with HCT-15 colon it was 0.581 µM; with IGROV1 ovarian, 1.42 µM; in the assay with NCI/ADR-RES ovarian it was 3.38 µM; in the assay on OVCAR-8 ovarian, 2.48 µM. Besides, the GI50 is 2.45 µM in the assay on SNB-19 CNS, 1.92 µM with UACC-62 melanoma and 1.71 µM in the assay with UO-31 renal. Also, the TGI in the assay with A498 renal amounted to 12.7 µM; in the assay with EKVX NSCLC it was 4.21 µM; in the assay on HCT-15 colon it was 1.94 µM; in the assay on IGROV1 ovarian, 3.15 µM; with NCI/ADR-RES ovarian it was 17.3 µM; in the assay on OVCAR-8 ovarian it was 5.7 µM. Also, the TGI in the assay with SNB-19 CNS came to 6.08 µM; with UACC-62 melanoma, 3.76 µM; in the assay on UO-31 renal, 3.44 µM.
With `O=C1c2ccccc2-c2cc3ccccc3c(=O)n21`, the TGI with EKVX NSCLC, with HCT-15 colon, with IGROV1 ovarian, in the assay on NCI/ADR-RES ovarian, in the assay on OVCAR-8 ovarian and with SNB-19 CNS was more than 100 µM throughout. The TGI in the assay on UACC-62 melanoma and in the assay with UO-31 renal was more than 100 µM in each case.
Regarding `c1ccc(SCCCC(Sc2ccccc2)Sc2ccccc2)cc1`, the TGI with A498 renal, with EKVX NSCLC, with HCT-15 colon, with HOP-62 NSCLC, in the assay on IGROV1 ovarian and in the assay with OVCAR-8 ovarian was more than 100 µM each time. Besides, the TGI in the assay on SNB-19 CNS, in the assay on UACC-62 melanoma and with UO-31 renal was more than 100 µM in each case.
For `Clc1ccc2c(Cl)ncnc2c1`, the TGI with A498 renal, with EKVX NSCLC, with HCT-15 colon, with HOP-62 NSCLC, in the assay on IGROV1 ovarian and with OVCAR-8 ovarian was more than 100 µM throughout. In addition, the TGI in the assay on SNB-19 CNS, in the assay with UACC-62 melanoma and with UO-31 renal was more than 100 µM each time.
Turning to `O=C1OC(c2ccc(O)cc2)(c2ccc(O)cc2)c2cccc3cccc1c23`, the GI50 in the assay with A498 renal was 0.488 µM; with HCT-15 colon, 13.6 µM; in the assay with HOP-62 NSCLC it was 17.3 µM; in the assay with IGROV1 ovarian it was 17.6 µM; in the assay on NCI/ADR-RES ovarian, 21.9 µM; with OVCAR-8 ovarian, 16.7 µM. Further, the figures for the GI50 with SNB-19 CNS, in the assay on UACC-62 melanoma and in the assay on UO-31 renal were 16.8 µM, 11.3 µM and 12.5 µM, respectively. The TGI in the assay on A498 renal was 15.3 µM; in the assay with HCT-15 colon it was 34.3 µM; with HOP-62 NSCLC, 38.1 µM; in the assay on IGROV1 ovarian it was 42.7 µM; in the assay on NCI/ADR-RES ovarian, 68.7 µM; in the assay on OVCAR-8 ovarian it was 44.1 µM. The TGI in the assay with SNB-19 CNS came out at 34.5 µM; in the assay on UACC-62 melanoma it was 25.7 µM; in the assay on UO-31 renal, 28.9 µM.
For `O=C1c2cccnc2C(=O)c2c1c(C(=O)OCCCN1CCOCC1)c1ccccn21`, the GI50 in the assay on A498 renal is 0.0295 µM; with EKVX NSCLC, 0.0758 µM; with IGROV1 ovarian it was 0.0163 µM; in the assay on NCI/ADR-RES ovarian it was less than 0.01 µM; with OVCAR-8 ovarian, less than 0.01 µM; in the assay with SNB-19 CNS, less than 0.01 µM. Besides, the GI50 in the assay with UACC-62 melanoma is less than 0.01 µM. The TGI with A498 renal came to 2.09 µM; with EKVX NSCLC, 1.75 µM; in the assay on IGROV1 ovarian it was 3.2 µM; with NCI/ADR-RES ovarian it was 2.21 µM; in the assay with OVCAR-8 ovarian it was 1.92 µM; in the assay with SNB-19 CNS, 4.13 µM. For the same molecule, the TGI in the assay with UACC-62 melanoma amounted to 0.0244 µM.
Take `CC(C)OP(=O)(CP(=O)(OC(C)C)OC(C)C)OC(C)C.[CH3][Sn]([Br])([Br])[Br]`: the GI50 in the assay on A498 renal, with EKVX NSCLC, in the assay with HCT-15 colon, in the assay with HOP-62 NSCLC, in the assay on IGROV1 ovarian and with OVCAR-8 ovarian was more than 100 µM throughout. Also, the GI50 with SNB-19 CNS, with UACC-62 melanoma and in the assay with UO-31 renal was more than 100 µM in each case. The TGI with A498 renal, with EKVX NSCLC, in the assay on HCT-15 colon, in the assay with HOP-62 NSCLC, in the assay on IGROV1 ovarian and with OVCAR-8 ovarian was more than 100 µM throughout. Moreover, the TGI with SNB-19 CNS, in the assay with UACC-62 melanoma and in the assay with UO-31 renal was more than 100 µM each time.
In the case of `Cc1nn(-c2ccccc2)c2c1C1C(=C(c3ccc(Cl)cc3)N2)C(=O)Nc2ccccc21` (stereo unspecified), the GI50 with A498 renal is 4.01 µM; in the assay with HCT-15 colon, 3 µM; in the assay on HOP-62 NSCLC, 9.88 µM; with IGROV1 ovarian it was 3.82 µM; with NCI/ADR-RES ovarian, 4.32 µM; with OVCAR-8 ovarian it was 3.26 µM. Moreover, the GI50 in the assay with SNB-19 CNS is 5.28 µM; in the assay on UACC-62 melanoma, 3.56 µM; with UO-31 renal, 2.86 µM. In addition, the TGI in the assay on A498 renal was 26.4 µM; in the assay with HCT-15 colon, 18.6 µM; with HOP-62 NSCLC, more than 100 µM; with IGROV1 ovarian, 60.2 µM; in the assay on NCI/ADR-RES ovarian, more than 100 µM; with OVCAR-8 ovarian it was 67 µM. Further, the TGI in the assay on SNB-19 CNS is more than 100 µM; in the assay with UACC-62 melanoma it was 15 µM; in the assay with UO-31 renal, 30.3 µM.
In the case of `COC(=O)c1cc(Nc2ccc(O)c3c2C(=O)c2c([N+](=O)[O-])ccc(O)c2C3=O)cc(C(=O)OC)c1`, the GI50 is 20.8 µM in the assay on A498 renal; 2.77 µM in the assay on HCT-15 colon; 4.04 µM in the assay on HOP-62 NSCLC; 26.9 µM in the assay on IGROV1 ovarian; 26.8 µM with NCI/ADR-RES ovarian; 6.57 µM with OVCAR-8 ovarian. Moreover, the GI50 in the assay on SNB-19 CNS was 22.2 µM; with UACC-62 melanoma, 4.63 µM; in the assay on UO-31 renal, 16.5 µM. Moreover, the TGI in the assay on A498 renal, in the assay on HCT-15 colon, in the assay on HOP-62 NSCLC, in the assay with IGROV1 ovarian, in the assay on NCI/ADR-RES ovarian and in the assay on OVCAR-8 ovarian was more than 100 µM each time. The TGI with SNB-19 CNS, in the assay with UACC-62 melanoma and in the assay on UO-31 renal was more than 100 µM throughout.
In the case of `Cc1ccc([P+](Cc2ccc([N+](=O)[O-])cc2)(c2ccc(C)cc2)c2ccc(C)cc2)cc1`, the GI50 was 2.54 µM with A498 renal; 18.2 µM in the assay with HCT-15 colon; 10.4 µM in the assay with HOP-62 NSCLC; 2.53 µM in the assay on IGROV1 ovarian; 68.3 µM with NCI/ADR-RES ovarian; 2.96 µM with OVCAR-8 ovarian. For the same molecule, the results for the GI50 in the assay with SNB-19 CNS, in the assay on UACC-62 melanoma and with UO-31 renal were 3.25 µM, 1.43 µM and 13.3 µM, respectively. For the same molecule, the TGI was 12.7 µM in the assay on A498 renal; 46.2 µM with HCT-15 colon; 23.8 µM with HOP-62 NSCLC; 14.8 µM in the assay with IGROV1 ovarian; more than 100 µM in the assay with NCI/ADR-RES ovarian; 13 µM in the assay with OVCAR-8 ovarian. In addition, the TGI with SNB-19 CNS was 13.6 µM; with UACC-62 melanoma, 6.34 µM; with UO-31 renal, 31.5 µM.
For the molecule `CN1CC2(CCCCC2)C(O)C12C=CCCC2` (stereo unspecified), the TGI in the assay on A498 renal, in the assay with EKVX NSCLC, in the assay with HCT-15 colon, in the assay with HOP-62 NSCLC, in the assay on IGROV1 ovarian and in the assay on OVCAR-8 ovarian was more than 100 µM each time. Besides, the TGI in the assay with SNB-19 CNS, in the assay on UACC-62 melanoma and in the assay on UO-31 renal was more than 100 µM each time.
For the molecule `O=C(Cc1nc2ccc(C(=O)c3ccccc3)cc2[nH]c1=O)C(=O)Nc1ccccc1[N+](=O)[O-]`, the TGI in the assay with A498 renal, with EKVX NSCLC, in the assay on HCT-15 colon, in the assay on IGROV1 ovarian, in the assay on NCI/ADR-RES ovarian and with OVCAR-8 ovarian was more than 100 µM throughout. In addition, the TGI in the assay on UACC-62 melanoma and in the assay on UO-31 renal was more than 100 µM in each case.
As to `CCCCCCCCCCCCCCCC[N+]1(CC)CCCC1`, the GI50 in the assay on A498 renal was 0.397 µM; in the assay with HCT-15 colon, 1.35 µM; in the assay with HOP-62 NSCLC, 1.03 µM; in the assay on IGROV1 ovarian, 0.432 µM; in the assay on NCI/ADR-RES ovarian, 12.9 µM; in the assay with UO-31 renal, 2.79 µM. For the same molecule, the TGI is 2.94 µM in the assay with A498 renal; 5.49 µM in the assay on HCT-15 colon; 2.52 µM with HOP-62 NSCLC; 1.87 µM in the assay on IGROV1 ovarian; 38.4 µM in the assay on NCI/ADR-RES ovarian; 11.6 µM in the assay on UO-31 renal.
Regarding `CC1=C(C#N)C(N)=C2C(C)=C(C#N)C(N)=C12`, the TGI in the assay on A498 renal, with EKVX NSCLC, in the assay on HCT-15 colon, in the assay with HOP-62 NSCLC, in the assay with IGROV1 ovarian and in the assay with OVCAR-8 ovarian was more than 100 µM throughout. Also, the TGI in the assay with SNB-19 CNS, in the assay with UACC-62 melanoma and with UO-31 renal was more than 100 µM throughout.
For `CC1(C)N=C(N)N=C(N)N1c1ccc(OCC(=O)Nc2cccc(S(=O)(=O)F)c2)c(Cl)c1`, the TGI is more than 100 µM in the assay with HCT-15 colon; more than 79.7 µM in the assay on HOP-62 NSCLC; more than 100 µM in the assay with IGROV1 ovarian; more than 100 µM with NCI/ADR-RES ovarian; more than 100 µM in the assay with OVCAR-8 ovarian; more than 100 µM in the assay with SNB-19 CNS. This molecule also showed a TGI with UO-31 renal of more than 100 µM.

Source of the values: PubChem BioAssay (NCI).
